Experimental data: ChEMBL document CHEMBL1201862, “PubChem BioAssay data set” (2004)
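Each compound was tested at five concentrations against cells in 96-well plates for 48 hours. At the GI50, growth is halved.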 Activity calls are given as the source filed them. Rule as the data show it: active = GI50 up to about 1.1 µM and inactive = higher.

Experiments:
Experiment in all cases: growth of human tumour cells (NCI), 48 h
A498 = system: A498
A549 = system: A549
EKVX = system: EKVX
HL-60 = system: HL-60
Hs-578T = system: Hs-578T
IGROV-1 = system: IGROV-1
K562 = system: K562
M14 = system: M14
MDA-N = system: MDA-N
Malme-3M = system: Malme-3M
NCI-H226 = system: NCI-H226
OVCAR-3 = system: OVCAR-3
OVCAR-8 = system: OVCAR-8
SF-268 = system: SF-268
SK-OV-3 = system: SK-OV-3
SNB-19 = system: SNB-19
T47D = system: T47D
HCC 2998 = system: HCC 2998

| SMILES | GI50 (A498) | GI50 (A549) | GI50 (EKVX) | GI50 (HL-60) | GI50 (Hs-578T) | GI50 (IGROV-1) | GI50 (K562) | GI50 (M14) | GI50 (MDA-N) | GI50 (Malme-3M) | GI50 (NCI-H226) | GI50 (OVCAR-3) | GI50 (OVCAR-8) | GI50 (SF-268) | GI50 (SK-OV-3) | GI50 (SNB-19) | GI50 (T47D) | GI50 (HCC 2998) |
| --- | --- | --- | --- | --- | --- | --- | --- | --- | --- | --- | --- | --- | --- | --- | --- | --- | --- | --- |
| O=[N+]([O-])c1ccc(S(=O)(=O)Cc2ccccc2)c2nonc12 | > 100 µM (inactive) | 29.4 µM (inactive) | 21.1 µM (inactive) | 18.3 µM (inactive) | 24.3 µM (inactive) | 18.8 µM (inactive) | 26.6 µM (inactive) | 16.4 µM (inactive) | 19 µM (inactive) | 17.9 µM (inactive) | > 100 µM (inactive) | 20.8 µM (inactive) | 22.1 µM (inactive) | 20 µM (inactive) | > 100 µM (inactive) | 37 µM (inactive) | 18.9 µM (inactive) |  |
| O=C1Oc2ccccc2N/C1=C/C(=O)c1ccc(Cl)cc1 | > 100 µM (inactive) | 60.3 µM (inactive) | > 100 µM (inactive) |  | > 100 µM (inactive) | > 100 µM (inactive) | 37.1 µM (inactive) | > 100 µM (inactive) | 66.1 µM (inactive) | > 100 µM (inactive) | > 100 µM (inactive) | 37.9 µM (inactive) | 42.5 µM (inactive) | > 100 µM (inactive) | > 100 µM (inactive) | > 100 µM (inactive) | 47.5 µM (inactive) | 63.5 µM (inactive) |
| CSc1ccc(Nc2cc(=O)[nH]c(=O)[nH]2)cc1 | > 100 µM (inactive) | > 100 µM (inactive) |  | > 100 µM (inactive) | > 100 µM (inactive) |  | > 100 µM (inactive) | > 100 µM (inactive) | > 100 µM (inactive) | > 100 µM (inactive) | > 100 µM (inactive) | > 100 µM (inactive) | 60.4 µM (inactive) | > 100 µM (inactive) | > 100 µM (inactive) | > 100 µM (inactive) | > 100 µM (inactive) | > 100 µM (inactive) |
| CC(=O)OC1CC[C@@]2(C)C(=CC[C@@H]3[C@@H]2CC[C@]2(C)Nc4nn(S(C)(=O)=O)cc4C[C@@H]32)C1 (stereo partly drawn) | > 100 µM (inactive) |  |  | > 10 µM (inactive) | 67 µM (inactive) | 73.6 µM (inactive) | 12.1 µM (inactive) | 20.7 µM (inactive) | 29 µM (inactive) | 27.3 µM (inactive) | 27.7 µM (inactive) | 24.2 µM (inactive) | 32.5 µM (inactive) |  | > 100 µM (inactive) | 79.4 µM (inactive) | 14.2 µM (inactive) | 30.4 µM (inactive) |
| COc1ccc(C2C3CCc4ccccc4C3=NN2S(=O)(=O)c2ccc(Cl)cc2)cc1 (stereo not drawn) |  | 27.9 µM (inactive) | 35.7 µM (inactive) | 17.9 µM (inactive) | 33 µM (inactive) | 2.61 µM (inactive) | 4.98 µM (inactive) | 18.3 µM (inactive) | 2.81 µM (inactive) | 59.3 µM (inactive) | 20.7 µM (inactive) | 16.6 µM (inactive) | 41.6 µM (inactive) | 18.4 µM (inactive) | 0.0995 µM (active) | 39.2 µM (inactive) | 10.7 µM (inactive) |  |
| Cn1c(-c2ccccc2)cc(-c2cccs2)c1-c1ccsc1 | > 100 µM (inactive) | > 100 µM (inactive) | > 100 µM (inactive) | > 100 µM (inactive) | > 100 µM (inactive) | > 100 µM (inactive) | > 100 µM (inactive) | > 100 µM (inactive) | > 100 µM (inactive) |  | > 100 µM (inactive) | > 100 µM (inactive) | > 100 µM (inactive) | > 100 µM (inactive) | > 100 µM (inactive) | > 100 µM (inactive) | > 100 µM (inactive) | > 100 µM (inactive) |
| CC(C)(C)c1cc(C(CO)OCCOCCO)cc(C(C)(C)C)c1O (stereo not drawn) | > 100 µM (inactive) | > 100 µM (inactive) | > 100 µM (inactive) |  | > 100 µM (inactive) | > 100 µM (inactive) | > 100 µM (inactive) | > 100 µM (inactive) | > 100 µM (inactive) | > 100 µM (inactive) | > 100 µM (inactive) | > 100 µM (inactive) | > 100 µM (inactive) | > 100 µM (inactive) | > 100 µM (inactive) | > 100 µM (inactive) | > 100 µM (inactive) |  |
| O=C(/N=N/c1cc(Cl)ccc1Cl)NNc1cc(Cl)ccc1Cl | 26.9 µM (inactive) |  |  | 4.41 µM (inactive) | 25.5 µM (inactive) | 19 µM (inactive) | 14.6 µM (inactive) | 17.1 µM (inactive) | 25.4 µM (inactive) | 23.1 µM (inactive) | > 10 µM (inactive) | 16.8 µM (inactive) | 26.8 µM (inactive) |  | 30.3 µM (inactive) | > 10 µM (inactive) | 10.5 µM (inactive) | 25.9 µM (inactive) |
| Cc1ccc(C(=O)N/N=C(\N=N\c2cccc(C)c2)c2ccc(N(CCC#N)CCC#N)cc2C)cc1 | 73.3 µM (inactive) | > 100 µM (inactive) | 95.3 µM (inactive) | > 100 µM (inactive) | 51.9 µM (inactive) | 34.3 µM (inactive) | > 100 µM (inactive) | 89.5 µM (inactive) | 54.7 µM (inactive) |  | 55.2 µM (inactive) | 78.9 µM (inactive) | 43.3 µM (inactive) | 59.6 µM (inactive) | > 100 µM (inactive) | > 100 µM (inactive) | 44 µM (inactive) | > 100 µM (inactive) |
| C=C1CCN2CC[C@@H](OC(=O)/C(C)=C\C)[C@@H]12 | > 100 µM (inactive) | > 100 µM (inactive) | > 100 µM (inactive) |  | > 100 µM (inactive) | > 100 µM (inactive) | > 100 µM (inactive) | > 100 µM (inactive) | > 100 µM (inactive) | > 100 µM (inactive) | > 100 µM (inactive) | > 100 µM (inactive) | > 100 µM (inactive) | > 100 µM (inactive) | > 100 µM (inactive) | > 100 µM (inactive) | > 100 µM (inactive) | > 100 µM (inactive) |
| O=C1CSC2(CC(/C=C/c3ccccc3)=NN2c2cccc(S(=O)(=O)O)c2)N1c1nc2ccccc2s1 (stereo not drawn) | 26 µM (inactive) | 32.8 µM (inactive) | 60.4 µM (inactive) | 27 µM (inactive) | 55.5 µM (inactive) | 16.1 µM (inactive) | 35.1 µM (inactive) | 41.3 µM (inactive) | 35.2 µM (inactive) | 69.7 µM (inactive) | 37.5 µM (inactive) |  | 17.9 µM (inactive) |  |  | 21.5 µM (inactive) | 17.1 µM (inactive) | 59.4 µM (inactive) |
| C[Si](C)(C)C#CCOC=C1CC1 |  | > 100 µM (inactive) | > 100 µM (inactive) | 35.2 µM (inactive) | > 100 µM (inactive) | 70.8 µM (inactive) | > 100 µM (inactive) | > 100 µM (inactive) | > 100 µM (inactive) | > 100 µM (inactive) | > 100 µM (inactive) |  | > 100 µM (inactive) | > 100 µM (inactive) | > 100 µM (inactive) | > 100 µM (inactive) | > 100 µM (inactive) | > 100 µM (inactive) |
| CCOC(=O)c1cnc(N(C)C)nc1SC(=N)N | > 100 µM (inactive) | > 100 µM (inactive) | > 100 µM (inactive) |  | > 100 µM (inactive) | > 100 µM (inactive) | > 100 µM (inactive) | > 100 µM (inactive) | > 100 µM (inactive) | > 100 µM (inactive) | > 100 µM (inactive) | > 100 µM (inactive) | > 100 µM (inactive) | > 100 µM (inactive) | > 100 µM (inactive) | > 100 µM (inactive) | > 100 µM (inactive) |  |
| O=C1OC(=O)C2=C1C(c1cccs1)C=C(c1cccnc1)N2c1ccncc1 (stereo not drawn) | 18.7 µM (inactive) | 17.6 µM (inactive) | 14 µM (inactive) | 11 µM (inactive) | 18.7 µM (inactive) | 13.8 µM (inactive) | 9.12 µM (inactive) | 13.2 µM (inactive) | 17.8 µM (inactive) |  | 21.6 µM (inactive) | 13.4 µM (inactive) | 21.6 µM (inactive) | 16.6 µM (inactive) | 24.9 µM (inactive) | 18 µM (inactive) | 18.2 µM (inactive) | 14.1 µM (inactive) |
| Cc1c2cnccc2c(C)c2c1[nH]c1ccc(O)cc12 |  | 1.52 µM (inactive) | 2.88 µM (inactive) | 1.05 µM (active) | > 10 µM (inactive) | 1.85 µM (inactive) | 3.17 µM (inactive) | 1.57 µM (inactive) | 2.79 µM (inactive) | 1.35 µM (inactive) | 0.328 µM (active) | 1.13 µM (inactive) | 0.607 µM (active) | 1.01 µM (active) | 6.58 µM (inactive) | 3.21 µM (inactive) | 5.92 µM (inactive) | 1.57 µM (inactive) |
| O=NN1CCNC1Cc1ccccc1 (stereo not drawn) |  | > 100 µM (inactive) | > 100 µM (inactive) | 37.6 µM (inactive) | > 100 µM (inactive) | > 100 µM (inactive) | > 100 µM (inactive) | 41.6 µM (inactive) | > 100 µM (inactive) | > 100 µM (inactive) | > 100 µM (inactive) | > 100 µM (inactive) | > 100 µM (inactive) | 43.4 µM (inactive) | 75.2 µM (inactive) | 35.3 µM (inactive) | 47.1 µM (inactive) | > 100 µM (inactive) |
| Cc1csc(-c2cn(C)c3c2C(=O)C(=N)C=C3O)n1 | 12.2 µM (inactive) | 2.65 µM (inactive) | 3.37 µM (inactive) | 1.58 µM (inactive) | 3.86 µM (inactive) | 2.31 µM (inactive) | 6.28 µM (inactive) | 3.74 µM (inactive) | 14.1 µM (inactive) |  | 8.39 µM (inactive) | 6.41 µM (inactive) | 6.34 µM (inactive) | 15.8 µM (inactive) | 21.2 µM (inactive) | 7.38 µM (inactive) | 17.7 µM (inactive) | 5 µM (inactive) |
